Results: ChEMBL document CHEMBL5241097, “Synthetically-tailored and nature-derived dual COX-2/5-LOX inhibitors: Structural aspects and SAR” (Eur J Med Chem, 2021)
Each block holds one molecule with its values, some of them ahead of it.

Columns and labels:
Homo sapiens = species on record: Homo sapiens; test: Selectivity index, ratio of IC50 for inhibition of human COX1 to IC50 for inhibition of human COX2
[1] = biological target: T1, Polyunsaturated fatty acid 5-lipoxygenase (Homo sapiens, UniProt P09917); test: Inhibition of 5-LOX (unknown origin)
T1 sequence (P09917 whole entry): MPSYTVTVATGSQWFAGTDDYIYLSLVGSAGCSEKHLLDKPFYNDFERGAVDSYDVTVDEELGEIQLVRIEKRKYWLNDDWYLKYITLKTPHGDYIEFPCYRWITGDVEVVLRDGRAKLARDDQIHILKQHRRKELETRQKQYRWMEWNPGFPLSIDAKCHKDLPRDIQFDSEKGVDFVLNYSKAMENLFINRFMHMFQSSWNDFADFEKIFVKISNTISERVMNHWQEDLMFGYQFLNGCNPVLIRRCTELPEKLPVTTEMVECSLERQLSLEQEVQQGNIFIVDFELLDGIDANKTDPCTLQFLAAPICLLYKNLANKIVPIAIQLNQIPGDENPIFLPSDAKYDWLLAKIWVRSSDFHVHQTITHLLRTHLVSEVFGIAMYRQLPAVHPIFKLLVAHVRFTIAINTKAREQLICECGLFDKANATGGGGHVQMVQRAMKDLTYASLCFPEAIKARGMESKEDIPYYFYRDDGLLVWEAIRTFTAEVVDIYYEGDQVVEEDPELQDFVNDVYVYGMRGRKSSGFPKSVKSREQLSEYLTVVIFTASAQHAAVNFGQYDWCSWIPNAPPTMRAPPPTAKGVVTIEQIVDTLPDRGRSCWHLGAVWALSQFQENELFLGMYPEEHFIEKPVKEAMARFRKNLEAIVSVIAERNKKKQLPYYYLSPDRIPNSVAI

Rattus norvegicus [2] = test: Antiinflammatory activity in Wistar rat carragenan-induced paw edema model assessed as reduction in edema thickness at 50 mg/kg, po and measured after 2 hrs; type: functional; set-up: scale not given: the % may be the effect or the level left
[3] = biological target: T2, Prostaglandin G/H synthase 2 (Homo sapiens, UniProt P35354); test: Inhibition of COX-2 (unknown origin) using arachidonic acid as substrate preincubated for 5 mins followed by substrate addition by colorimetric assay
T2 sequence (P35354 whole entry): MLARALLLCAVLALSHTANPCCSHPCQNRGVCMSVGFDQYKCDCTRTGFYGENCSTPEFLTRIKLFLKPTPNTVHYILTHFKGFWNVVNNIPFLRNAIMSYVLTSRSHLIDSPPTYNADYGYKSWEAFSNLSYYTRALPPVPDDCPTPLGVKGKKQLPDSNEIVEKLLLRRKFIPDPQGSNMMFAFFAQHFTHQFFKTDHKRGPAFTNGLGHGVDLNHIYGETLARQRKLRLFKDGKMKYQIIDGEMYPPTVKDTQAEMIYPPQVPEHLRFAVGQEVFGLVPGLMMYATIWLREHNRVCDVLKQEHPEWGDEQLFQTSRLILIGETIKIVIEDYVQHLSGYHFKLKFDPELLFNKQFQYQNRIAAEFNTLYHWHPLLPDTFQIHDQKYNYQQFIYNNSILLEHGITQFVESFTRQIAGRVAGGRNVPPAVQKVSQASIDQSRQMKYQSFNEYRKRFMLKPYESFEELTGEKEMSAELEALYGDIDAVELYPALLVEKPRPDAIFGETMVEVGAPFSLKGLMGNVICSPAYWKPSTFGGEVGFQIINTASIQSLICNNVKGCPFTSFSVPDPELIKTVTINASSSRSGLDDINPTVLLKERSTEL

[4] = biological target: T1, Polyunsaturated fatty acid 5-lipoxygenase; test: Inhibition of 5-LOX (unknown origin) by colorimetric assay
DU-145 = test: Antiproliferative activity against human DU-145 cells assessed as reduction in cell viability incubated for 48 hrs by MTT assay; type: functional, cell-based; details: DU-145, 48 h
[5] = biological target: T2, Prostaglandin G/H synthase 2; test: Inhibition of COX-2 (unknown origin) using arachidonic acid as substrate preincubated for 5 mins followed by substrate addition and measured after 20 mins by colorimetric assay
[6] = Inhibition of soybean 5-LOX using arachidonic acid as substrate preincubated for 5 mins followed by substrate addition and measured after 5 mins by microplate spectrophotometric analysis; set-up: species or system Glycine max
Rattus norvegicus [7] = test: Antiinflammatory activity in po dosed Sprague-Dawley rat assessed as reduction in carragenan-induced paw edema and measured after 4 hrs by vernier caliper method; type: functional; set-up: scale not given: the % may be the effect or the level left
[8] = biological target: T2, Prostaglandin G/H synthase 2; test: Inhibition of COX-2 (unknown origin) using arachidonic acid as substrate preincubated for 15 mins followed by substrate addition by colorimetric assay
[9] = Inhibition of soybean 5-LOX using linoleic acid as substrate by spectrophotometric analysis; set-up: species or system Glycine max
[10] = biological target: T1, Polyunsaturated fatty acid 5-lipoxygenase; test: Inhibition of 5-LOX (unknown origin) by enzyme immune assay
[11] = biological target: T1, Polyunsaturated fatty acid 5-lipoxygenase; test: Inhibition of 5-LOX (unknown origin) by fluorometric analysis
[12] = biological target: T2, Prostaglandin G/H synthase 2; test: Inhibition of recombinant human COX-2 using arachidonic acid as substrate by ELISA
[13] = biological target: T3, Prostaglandin G/H synthase 1 (Homo sapiens, UniProt P23219); test: Inhibition of recombinant human COX-1 using arachidonic acid as substrate by ELISA
T3 sequence (P23219 whole entry): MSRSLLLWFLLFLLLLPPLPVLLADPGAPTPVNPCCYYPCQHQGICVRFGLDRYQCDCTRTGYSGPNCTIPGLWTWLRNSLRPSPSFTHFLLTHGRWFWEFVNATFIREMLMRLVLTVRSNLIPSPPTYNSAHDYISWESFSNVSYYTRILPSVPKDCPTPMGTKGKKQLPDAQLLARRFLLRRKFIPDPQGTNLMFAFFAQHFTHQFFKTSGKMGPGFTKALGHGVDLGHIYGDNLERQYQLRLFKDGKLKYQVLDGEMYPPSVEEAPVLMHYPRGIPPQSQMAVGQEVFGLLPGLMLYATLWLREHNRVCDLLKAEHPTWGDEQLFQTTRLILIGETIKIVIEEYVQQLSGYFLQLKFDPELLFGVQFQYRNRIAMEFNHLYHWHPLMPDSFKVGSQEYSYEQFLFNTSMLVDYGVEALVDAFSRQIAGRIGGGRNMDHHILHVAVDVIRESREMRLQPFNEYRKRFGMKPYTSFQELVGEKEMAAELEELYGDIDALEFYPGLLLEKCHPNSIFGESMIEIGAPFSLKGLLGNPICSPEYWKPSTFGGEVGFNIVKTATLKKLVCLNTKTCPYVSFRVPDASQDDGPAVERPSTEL

[14] = biological target: T2, Prostaglandin G/H synthase 2; test: Inhibition of COX-2 (unknown origin) by 2,7-dichlorofluorescein dye based spectrophotometric method
[15] = biological target: T1, Polyunsaturated fatty acid 5-lipoxygenase; test: Inhibition of 5-LOX (unknown origin) by spectrophotometric method
[16] = biological target: T1, Polyunsaturated fatty acid 5-lipoxygenase; test: Inhibition of recombinant human 5-LOX using arachidonic acid as substrate preincubated for 10 mins followed by substrate addition and measured after 10 mins by ELISA
[17] = biological target: T2, Prostaglandin G/H synthase 2; test: Inhibition of recombinant human COX-2 using arachidonic acid as substrate preincubated for 5 mins followed by substrate addition and measured after 20 mins by ELISA
[18] = biological target: T3, Prostaglandin G/H synthase 1; test: Inhibition of human COX-1 using arachidonic acid as substrate preincubated for 10 mins followed by substrate addition and measured after 2 mins by ELISA
Rattus norvegicus [19] = test: Antiinflammatory activity in Wistar rat assessed as reduction in carragenan-induced paw edema at 10 mg/kg, po for 7 days followed by carrageenan stimulation and measured upto 6 hrs by vernier caliper method; type: functional; set-up: scale not given: the % may be the effect or the level left; details: time 7 day
[20] = Inhibition of potato 5-LOX using linoleic acid as substrate preincubated for 5 mins followed by substrate addition and measured after 5 mins by spectrophotometric assay; set-up: species or system Solanum tuberosum
[21] = biological target: T2, Prostaglandin G/H synthase 2; test: Inhibition of recombinant human COX-2 using arachidonic acid as substrate preincubated for 10 mins followed by substrate addition and measured after 2 mins by Ellman's reagent based ELISA
[22] = biological target: T1, Polyunsaturated fatty acid 5-lipoxygenase; test: Inhibition of recombinant human 5-LOX using arachidonic acid as substrate incubated for 10 mins by spectrophotometric analysis
Rattus norvegicus [23] = test: Antiinflammatory activity in carragenan-induced paw edema rat model assessed as reduction in edema thickness at 28 microg/kg, ip and measured after 4 hrs by digital Vernier caliper analysis; type: functional; set-up: scale not given: the % may be the effect or the level left; details: dose 28 µg/kg
[24] = Selectivity index, ratio IC50 for inhibition of ovine COX-1 to IC50 for inhibition of recombinant human COX-2
[25] = biological target: T2, Prostaglandin G/H synthase 2; test: Inhibition of recombinant human COX-2 by enzyme immune assay
[26] = biological target: T1, Polyunsaturated fatty acid 5-lipoxygenase; test: Inhibition of 5-LOX (unknown origin) using linoleic acid as substrate preincubated for 5 mins followed by substrate addition by spectrophotometric assay
[27] = biological target: T2, Prostaglandin G/H synthase 2; test: Inhibition of recombinant human COX-2 using arachidonic acid as substrate preincubated for 10 mins followed by substrate addition and measured after 2 mins by ELISA

SMILES: Cc1ccc(-c2ncc(Cl)cc2-c2ccc(S(C)(=O)=O)cc2)cn1
Ratio IC50 (Homo sapiens): 91.3

SMILES: Cc1ccc(-c2cc(C(F)(F)F)nn2-c2ccc(S(N)(=O)=O)cc2)cc1 [CELECOXIB]
Activity (Rattus norvegicus [2]): 15.7%
Activity (Rattus norvegicus [7]): 73.56%

SMILES: CC1=NN(c2ccc(S(N)(=O)=O)cc2)C(=O)/C1=N/Nc1ccc(S(N)(=O)=O)cc1
IC50 [3]: 0.66 µM
IC50 [4]: 0.57 µM

SMILES: CON(C)C(=O)c1ccc(-c2nc(CSc3nc4ccccc4s3)no2)cc1
IC50 [8]: 7.6 µM
IC50 [9]: 5.1 µM

SMILES: CC(C)NC(=O)c1cc(N)ccc1O
IC50 [10]: 3.41 µM

SMILES: COc1cc(/C=c2\c(=O)[nH]n3c(=O)c4ccccc4nc23)cc(OC)c1OC
IC50 [11]: 2.3 µM
IC50 [12]: 0.047 µM
IC50 [13]: 0.668 µM

SMILES: CCCCC(=O)OCC[C@@H]1CC=C[C@@H]2[C@H]1C(=O)O[C@@]2(C)CO
IC50 [14]: 2380 µM
IC50 [15]: 2580 µM

SMILES: COc1cc(O)cc(/C=C/c2ccc(O)cc2)c1
IC50 [16]: 4.01 µM
IC50 [17]: 0.25 µM

SMILES: Cc1ccc(-c2nc(N(c3ccccc3)c3ccccc3)sc2C(=O)c2cccs2)cc1
IC50 [18]: 5.55 µM
Ratio IC50 (Homo sapiens): 61.7
Activity (Rattus norvegicus [19]): 60.82%
IC50 [20]: 0.38 µM

SMILES: C=C1C(O)CCC2C1(C)CCC(C)C2(C)CCC1=CC(=O)OC1O (configuration not stated)
IC50 [21]: 12.8 µM
IC50 [22]: 16.5 µM

SMILES: CC1=CCCC2C1(C)CCC(C)C2(C)CCC1=CC(=O)OC1O (configuration not stated)
IC50 [21]: 10.3 µM
IC50 [22]: 14.4 µM

SMILES: O=C(c1ccc(-c2nc(CSc3nc4ccccc4s3)no2)cc1)N1CCOCC1
IC50 [8]: 5 µM
IC50 [9]: 5.6 µM

SMILES: N=C1/C(=N\Nc2ccc(S(N)(=O)=O)cc2)C(N)=NN1c1ccc(S(N)(=O)=O)cc1
IC50 [3]: 0.92 µM
IC50 [4]: 2.78 µM

SMILES: O=C(c1sc(N(c2ccccc2)c2ccccc2)nc1-c1ccc([N+](=O)[O-])cc1)c1cccc2ccccc12
IC50 [18]: 8.06 µM
Ratio IC50 (Homo sapiens): 115
IC50 [26]: 0.29 µM
Activity (Rattus norvegicus [19]): 63%
IC50 [27]: 0.07 µM

SMILES: COc1cc([C@@H]2c3cc4c(cc3[C@@H](O[C@@H]3O[C@@H]5CO[C@@H](C)O[C@H]5[C@H](O)[C@H]3O)[C@H]3COC(=O)[C@H]23)OCO4)cc(OC)c1O [ETOPOSIDE]
IC50 (DU-145): 9.8 µM

Continued, in another order:

IC50 [1]: 54 µM
SMILES: O=C1N/C(=N\c2nc(-c3ccccc3)cs2)S/C1=C\c1ccc(Cl)cc1

IC50 [3]: 1.12 µM
IC50 [4]: 2.73 µM
SMILES: N=C1/C(=N\Nc2ccc(S(N)(=O)=O)cc2)C(N)=NN1c1ccccc1C(=O)O
Activity (Rattus norvegicus [2]): 15%

IC50 (DU-145): 8.17 µM
IC50 [5]: 0.12 µM
IC50 [6]: 7.73 µM
SMILES: CCc1ccc(-c2ccc(-n3cc(CNC(=O)C(=O)c4c[nH]c5ccccc45)nn3)cc2)cc1

IC50 [10]: 11.9 µM
Ratio IC50 [24]: 145
IC50 [25]: 0.1 µM
SMILES: CCCCCCNC(=O)c1cc(NCc2cc(O)ccc2O)ccc1O
Activity (Rattus norvegicus [23]): 40.05%

IC50 [3]: 0.72 µM
IC50 [4]: 0.52 µM
SMILES: CC1=NN(c2ccccc2C(=O)O)C(=O)/C1=N/Nc1ccc(S(N)(=O)=O)cc1
Activity (Rattus norvegicus [2]): 72.72%

IC50 [11]: 0.6 µM
IC50 [12]: 0.488 µM
IC50 [13]: 1.48 µM
SMILES: COc1cccc(/C=c2\c(=O)[nH]n3c(=O)c4ccccc4nc23)c1

Ratio IC50 (Homo sapiens): 7.61
IC50 [26]: 5.91 µM
SMILES: Cc1c(C(=O)N2CCN(c3ccccc3)CC2)nc2ccc(Cl)cc2c1O
